Data published in patent publication US20110200686A1, “COMPOSITIONS OF MODULATORS OF THE WNT/B-CATENIN PATHWAY AND AN N-CINNAMYL-N'BENZHYDRYL PIPERAZINE AND THEIR USE IN TREATING NEOPLASTIC CONDITIONS INCLUDING MALIGNANT MELANOMA” (UNIVERSITY OG WASHINGTON, priority 2008, published 2011).

Assays:
[1] = system: GSK-3; conditions: cited from earlier work; for selectivity for GSK-3: literature values
[2] = system: B16 melanoma cells; test: Cell proliferation assay, B16 murine melanoma cells; format: cell-based; conditions: NaCl 20 mM, negative control, FIG. 3B
Protocol: For cell counts by hematocytometer, cells were plated at a uniform density (usually between 10,000 to 25,000 cells per well) in a 12 or 24 well tissue culture plate in the appropriate media supplemented with 2% FBS. Cells were then incubated at 37° C. at 5% CO2 for three to seven days based on individual cell doubling time. At the end of the timecourse, cells were trypsinized, resuspended in the appropriate media, and counted using a standard hematocytometer. Dead cells were identified by 0.4% Trypan Blue stain. Cell proliferation experiments were performed with a minimum of six biologic replicates. […] For relative cell proliferation assays of B16:GFP cells incubated with lithium chloride or sodium chloride, cell proliferation was measured by relative firefly luciferase units (Promega; Madison, Wis.).

[3] = system: Wnt/β-catenin pathway; conditions: positive control, known from Zhang et al. 2007; cited from earlier work
[4] = system: human melanoma cells; test: Proliferation of human melanoma cells measured by Renilla luciferase activity; format: cell-based; conditions: flunarizine 1 μM alone, FIG. 5
Protocol: (§1) Wnt3a conditioned media was collected from sub-confluent melanoma cell lines, and this media was tested for its ability to activate Wnt/β-catenin signaling in UACC 1273 melanoma cells that were stably transduced with a Wnt/β-catenin-responsive firefly luciferase reporter and a constitutive Renilla luciferase gene used for normalization (Cignal TCF/LEF transcriptional reporter construct; SABiosciences, Frederick, Md.). Conditioned media was spun down to clear cell debris and then incubated with reporter cells overnight. Activation of the Wnt/β-catenin reporter was measured using a DLR assay kit (Promega; Madison, Wis.).
(§2) Flunarizine and QS11 were solubilized in dimethyl-sulfoxide (DMSO) vehicle, which was used as a control (vol/vol) for the described experiments. Drug incubations were 24-48 hours in duration.

[5] = system: Wnt/β-catenin pathway; test: Wnt/β-catenin-responsive (TCF/LEF) luciferase reporter assay in melanoma cells; format: cell-based, human
Protocol: as §1, §2
A TCF/LEF transcriptional reporter gene cell line used to monitor the activation of the Wnt signal transduction pathway was utilized in a high throughput screen of a library of chemical compounds to identify compounds that synergize with lithium in activating the Wnt/β-catenin pathway.

In the case of `O=[N+]([O-])c1ccc(NCCNc2ncc(-c3ncc[nH]3)c(-c3ccc(Cl)cc3Cl)n2)nc1` [CHIR-837], the “selectivity for GSK-3” value [1] is listed as > 5,000 fold.

With `[Cl-].[Na+]` [NaCl, Sodium chloride] the “effect on B16 melanoma cell growth” value [2] was “no effect on cell growth”.

In the case of `OC[C@H](Cc1ccccc1)Nc1nc(Oc2ccc3c(c2)CCC3)nc2c1ncn2Cc1ccc(-c2ccccc2)cc1` [QS11], the “synergy with Wnt-3a in activating the Wnt pathway” value [3] is given as “act synergistically with Wnt-3a to activate the Wnt pathway”.

With `Fc1ccc(C(c2ccc(F)cc2)N2CCN(CC=Cc3ccccc3)CC2)cc1` [flunarizine, 1-[bis(4-fluorophenyl)methyl]-4-cinnamyl-piperazine] the “proliferation of human melanoma cells (Renilla luciferase activity)” value [4] was “inhibited”, the “activation of Wnt-responsive reporter together with Wnt-3a conditioned media” value ([5]; flunarizine 1 μM, human melanoma cells, FIG. 6) was “synergizes with Wnt-3a conditioned media to activate a Wnt-responsive reporter” and the “enhancement of lithium-induced activation of the TCF/LEF reporter gene” value ([5]; flunarizine with lithium, FIG. 4) was about 100 fold.
